From patent publication US10000501B2, “Inhibitors of HIF prolyl hydroxylase” (MERCK SHARP & DOHME CORP., priority 2014, dated 2018)

The compounds below were run against T1, human HIF-PHD2 (Homo sapiens, UniProt Q9GZT9) (assay: HIF-PHD2 inhibition assay (hydroxylation of HIF-1α peptide, time resolved fluorescence)). Settings: FLAG-tagged full length PHD2; 0.2 μM 2-oxoglutarate, 0.5 μM HIF-1α peptide.
T1 construct: FLAG-tagged full length PHD2 expressed in and purified from baculovirus-infected Sf9 cells; FLAG; made in house; host or cells: baculovirus-infected Sf9 cells
T1 sequence (Q9GZT9 whole entry): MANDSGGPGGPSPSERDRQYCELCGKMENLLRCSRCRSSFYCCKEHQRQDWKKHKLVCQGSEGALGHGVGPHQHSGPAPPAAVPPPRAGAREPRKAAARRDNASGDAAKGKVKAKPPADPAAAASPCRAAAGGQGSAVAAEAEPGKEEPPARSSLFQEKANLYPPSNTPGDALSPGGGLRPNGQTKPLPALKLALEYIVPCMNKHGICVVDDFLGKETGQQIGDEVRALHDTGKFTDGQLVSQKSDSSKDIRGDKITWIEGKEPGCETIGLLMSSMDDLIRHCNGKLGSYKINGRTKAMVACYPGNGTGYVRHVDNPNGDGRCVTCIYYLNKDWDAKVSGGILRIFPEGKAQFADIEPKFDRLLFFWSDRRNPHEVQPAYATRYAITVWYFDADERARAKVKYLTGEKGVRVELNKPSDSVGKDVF
Type: biochemical
Procedure: To each well of a 384-well plate, 1 μL of test compounds in DMSO (final concentration ranging from 0.3 nM to 10 uM) were added into 20 μl of assay buffer (50 mM Tris pH 7.4/0.01% Tween-20/0.1 mg/ml bovine serum albumin/10 μM ferrous sulfate/1 mM sodium ascorbate/20 μg/ml catalase) containing 0.15 μg/ml FLAG-tagged full length PHD2 expressed in and purified from baculovirus-infected Sf9 cells. […] Purif.

| Compound | IC50 |
| --- | --- |
| CN1Cc2c(c(O)c(C(=O)NCC(=O)O)c(=O)n2Cc2ccc(S(C)(=O)=O)cc2)CC1=O [Example 71, 2-(4-hydroxy-7-methyl-1-(4-(methylsulfonyl)benzyl)-2,6-dioxo-1,2,5,6,7,8-hexahydro-1,7-naphthyridine-3-carboxamido)acetic acid] | 19 nM |
| CN1Cc2c(c(O)c(C(=O)NCC(=O)O)c(=O)n2Cc2ccc(F)cc2F)CC1=O [Example 72, 2-(1-(2,4-difluorobenzyl)-4-hydroxy-7-methyl-2,6-dioxo-1,2,5,6,7,8-hexahydro-1,7-naphthyridine-3-carboxamido)acetic acid] | 28.7 nM |
| CN1Cc2c(c(O)c(C(=O)NCC(=O)O)c(=O)n2Cc2cccc(C#N)c2)CC1=O [Example 73, 2-(1-(3-cyanobenzyl)-4-hydroxy-7-methyl-2,6-dioxo-1,2,5,6,7,8-hexahydro-1,7-naphthyridine-3-carboxamido)acetic acid] | 17.2 nM |
| CN1Cc2c(c(O)c(C(=O)NCC(=O)O)c(=O)n2Cc2ccc(C#N)cc2)CC1=O [Example 74, 2-(1-(4-cyanobenzyl)-4-hydroxy-7-methyl-2,6-dioxo-1,2,5,6,7,8-hexahydro-1,7-naphthyridine-3-carboxamido)acetic acid] | 7.5 nM |
| CN1Cc2c(c(O)c(C(=O)NCC(=O)O)c(=O)n2Cc2ccccc2Cl)CC1=O [Example 76, 2-(1-(2-chlorobenzyl)-4-hydroxy-7-methyl-2,6-dioxo-1,2,5,6,7,8-hexahydro-1,7-naphthyridine-3-carboxamido)acetic acid] | 10.6 nM |
| O=C(O)CNC(=O)c1c(O)c2c(n(Cc3ccc(C(F)(F)F)cc3)c1=O)NCCC2 [Example 78, 2-(4-Hydroxy-2-oxo-1-(4-(trifluoromethyl)benzyl)-1,2,5,6,7,8-hexahydro-1,8-naphthyridine-3-carboxamido)acetic acid] | 70 nM |
| O=C(O)CNC(=O)c1c(O)c2c(n(Cc3ccc(C(F)(F)F)cc3)c1=O)CN(Cc1ccccc1)CC2 [Example 80, 2-(7-Benzyl-4-hydroxy-2-oxo-1-(4-(trifluoromethyl)benzyl)-1,2,5,6,7,8-hexahydro-1,7-naphthyridine-3-carboxamido)acetic acid] | 32 nM |
| CN1CCc2c(c(O)c(C(=O)NCC(=O)O)c(=O)n2Cc2ccc(C(F)(F)F)cc2)C1 [Example 81, 2-(4-Hydroxy-6-methyl-2-oxo-1-(4-(trifluoromethyl)benzyl)-1,2,5,6,7,8-hexahydro-1,6-naphthyridine-3-carboxamido)acetic acid] | 46.1 nM |
| O=C(O)CNC(=O)c1c(O)c2c(n(Cc3ccc(C(F)(F)F)cc3)c1=O)C1CCC2C1 (centres unmarked) [Example 83, 2-(-4-hydroxy-2-oxo-1-(4-(trifluoromethyl)benzyl)-1,2,5,6,7,8-hexahydro-5,8-methanoquinoline-3-carboxamide)acetic acid] | 46 nM |
| O=C(O)CNC(=O)c1c(O)c2c(n(Cc3cnc(-c4ccccc4)s3)c1=O)C1CCC2C1 (centres unmarked) [Example 84, 2-(-4-hydroxy-2-oxo-1-((2-phenylthiazol-5-yl)methyl)-1,2,5,6,7,8-hexahydro-5,8-methanoquinoline-3-carboxamido)acetic acid] | 19 nM |
| O=C(O)CNC(=O)c1c(O)c2c(n(Cc3nc(-c4ccccc4)cs3)c1=O)C1CCC2C1 (centres unmarked) [Example 85, 2-(-4-hydroxy-2-oxo-1-((4-phenylthiaozl-2-yl)methyl)-1,2,5,6,7,8-hexahydro-5,8-methanoquinoline-3-carboxamido)acetic acid] | 61 nM |
